Laboratory results taken from patent publication US11414436B2, “Non-coordinating anion type activators containing cation having large alkyl groups” (ExxonMobil Chemical Patents Inc., priority 2018, dated 2022).
Where “and” joins values, the source holds several entries; their conditions need not be identical. Equal values may be shown once.

Experiments:
[1] = Solubility studies of the activators (saturated solution in isohexane or methylcyclohexane); format: physicochemical
Summary of the method: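 Solid activators stirred in excess with isohexane or methylcyclohexane for several hours at 25 °C, filtered, and a filtrate aliquot evaporated and weighed. Emulsion-forming activators titrated with solvent until homogeneous, with activator mass found gravimetrically. Saturated concentration given in mM.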

[2] = RUN B: ethylene-octene polymerization in parallel pressure reactor, activator diluent toluene or methylcyclohexane; conditions: ethylene-octene copolymerization; for activity: Cat 1 (MCN-1)
Method: RUN B: Polymerization in Parallel Pressure Reactor.
A series of ethylene-octene polymerizations were performed in the parallel pressure reactor according to the procedure described above. […] In a typical experiment an automated syringe was used to introduce into the reactor the following reagents, if utilized, in the following order: isohexane (0.35 mL), an isohexane solution of TNOAL scavenger (0.005 M, 60 μL), additional isohexane (0.35 mL), a toluene solution of the respective polymerization catalyst (150 μL, 0.4 mM, 20 nm [cat]/100 μL [toluene]), additional isohexane (0.35 mL), a toluene or methylcyclohexane solution of the respective activator (150 μL, 0.4 mM, (20 nm [act]/100 μL[ diluent])), then additional isohexane so that the total solvent volume for each run was 5 mL. Catalyst and activator were used in a 1:1 ratio. Each reaction was performed at a specified temperature range between 50 and 120° C., typically 95° C., while applying about 100 psig of ethylene (monomer) gas. Each reaction was allowed to run for about 1 hour (˜3600 seconds) or until approximately 20 psig of ethylene gas uptake was observed, at which point the reactions were quenched with air (˜300 psig). When sufficient polymer yield was attained (e.g., at least ˜10 mg), the polyethylene product was analyzed by Rapid GPC, described below.
In a typical experiment, the anilinium borate activators were combined with toluene or methylcyclohexane as diluent and introduced to the parallel, pressure reactor via syringe. By this mechanism of activator introduction, only well dissolved activators could be delivered to the reactor providing a means to discriminate between the polymerization performance of long chain soluble anilinium borates vs. conventional anilinium borates. Following addition of activator, the catalyst Cat 1 was introduced, via syringe as well-dissolved toluene solution and the polymerization was conducted per the methodology described above.

| Compound | Solubility limit in i-hexane (mM at 25° C.) ([1]; isohexane) [mM] | Solubility limit in i-hexane (wt % at 25° C.) ([1]; isohexane) [wt %] | Solubility limit in MeCy (mM at 25° C.) ([1]; methylcyclohexane) [mM] | quantity of polymer obtained with methylcyclohexane as diluent ([2]; Cat 1, activator in methylcyclohexane) | activity ([2]; activator diluent MeCy (methylcyclohexane)) [kg/mmol/h] | activity ([2]; activator diluent Toluene, listed as C2) |
| --- | --- | --- | --- | --- | --- | --- |
| CCCCCCCCCCCCCCCCCC[NH+](CCCCCCCCCCCCCCCCCC)c1ccc(C)cc1.Fc1c(F)c(F)c2c(F)c([B-](c3c(F)c(F)c4c(F)c(F)c(F)c(F)c4c3F)(c3c(F)c(F)c4c(F)c(F)c(F)c(F)c4c3F)c3c(F)c(F)c4c(F)c(F)c(F)c(F)c4c3F)c(F)c(F)c2c1F [DOdTH-BF28, 4-methyl-N,N-dioctadecylbenzenaminium-BF28] | 120 | 29 | 160 |  |  |  |
| N,N-dimethylanilinium tetrakis(heptafluoronaphthalen-2-yl)borate [DMAH-BF28, reference compound] |  |  |  | insufficient for analysis | 0.0 | 441.3 kg/mmol/h and 392.4 kg/mmol/h and 390.1 kg/mmol/h and 408.1 kg/mmol/h |
